Data from patent US20260027087A1, “DOSING REGIMENS COMPRISING A KAT6 INHIBITOR FOR THE TREATMENT OF CANCER” (PFIZER INC., priority 2022, published 2026).
“And” between values parts separate entries of the source, which are not always exact repeats. Identical values can stand only once.

What was measured:
[1] = system: locally advanced or metastatic selected solid tumors (ER+HER2− breast cancer, CRPC, or NSCLC); assay: Phase 1 clinical trial: clinical efficacy (tumor response); format: in vivo, human; details: for confirmed and durable partial responses (PR): ER+/HER2− breast cancer; for confirmed and durable partial responses, response-evaluable pts with ER+/HER2− mBC: progressed on prior ET+CDK4/6 inhibitor
Description: The patients in this trial are intolerant of or resistant to standard therapy.
Study Design: The overall study design is depicted in FIG. 1. The study contains two parts, a dose escalation (Part 1) followed by a dose expansion (Part 2). Not shown in FIG. 1 are Part 1D and Part 2D, which are additional arms in Part 1 and Part 2 in the study design and are described below.
Part 1A (Monotherapy Dose Escalation) contains dose escalation as monotherapy in patients with locally advanced or metastatic ER+HER2− breast cancer, CRPC, or NSCLC that is resistant or intolerant to standard therapy or for whom no standard therapy is available, to determine the maximum tolerated dose (MTD) and select the RDE. […] A 2-parameter Bayesian Logistic Regression Model (BLRM) was used for dose finding.
Part 1B (Combination Dose Escalation), COMPOUND A in combination with fulvestrant was evaluated for dose finding in patients with locally advanced or metastatic ER+HER2− breast cancer (2L+) who progressed after at least one line of treatment with an endocrine therapy and a CDK4/6 inhibitor to determine the MTD and RDE for this combination. Combination RDE may be different from monotherapy RDE due to potential toxicity overlap. A 5-parameter BLRM was used for dose finding.

[2] = Human pharmacokinetics predicted from preclinical data; details: in humans, based on preclinical data
[3] = Parts 1A + 1B, of the 10 with SD
[4] = as of 23 Mar. 2022, 31 patients dosed

COc1ccccc1S(=O)(=O)Nc1noc2cc(Cn3cccn3)cc(OC)c12 [COMPOUND A, 2-Methoxy-N-{4-methoxy-6-[(1H-pyrazol-1-yl)methyl]-1,2-benzoxazol-3-yl}benzene-1-sulfonamide]
Duration of response (DOR) ([1]; 1 patient in Part 1A): 19.4 months
Duration of response (DOR) ([1]; 2 patients in Part 1B (one value per patient)): 8.1 months and 10 months
clinical efficacy ([1]; 31 participants treated, cut-off 23 Mar. 2022): early signs of clinical efficacy
confirmed and durable partial responses (PR) ([1]; Part 1A (8 mg monotherapy)): 1 patients
confirmed and durable partial responses, response-evaluable pts with ER+/HER2− mBC ([1]; Part 1A (monotherapy)): ⅛
confirmed and durable partial responses, response-evaluable pts with ER+/HER2− mBC ([1]; Part 1B (5 mg QD + fulvestrant)): 2/4
confirmed and durable partial responses (PR) ([1]; Part 1B (5 mg QD/fulvestrant 500 mg)): 2 patients
Stable disease (SD), patients with CRPC [1, 3]: 4
Stable disease (SD), patients with ER+/HER2− breast cancer [1, 3]: 5
Stable disease (SD), patients with NSCLC [1, 3]: 1
confirmed and durable partial responses (PR) ([1]; among response-evaluable patients (n=22)): 3 patients
clinical responses in heavily treated patients with ER+HER2− breast cancer ([1]; as of 30 Sep. 2022): confirmed and durable clinical responses were observed
patients with SD lasting ≥6 months ([1]; as of 30 Sep. 2022): Three
efficacy in ER+HER2− breast cancer patients ([1]; during dose escalation, as of 23 Mar. 2022): signs of efficacy
duration of SD ([1]; patient with CRPC, 5 mg QD): 9.1 months
duration of SD ([1]; patient with CRPC, 15 mg QD): 11.3 months
duration of SD ([1]; patient with ER+/HER2− breast cancer, 8 mg QD): 7.5 months
predicted Vss [2]: ~0.1 L/kg
predicted oral bioavailability [2]: high oral bioavailability
predicted plasma CL [2]: ~6 mL/h/kg
predicted t [2]: approximately 12 h
COVID-19, all-causality SAE, by patient frequency (as of 23 Mar. 2022): 2
COVID-19, all-causality Grade 3 TEAE [4]: 3.2%
Pneumonitis, Grade 5 TEAE [4]: 3.2%
Pneumonitis, Grade 5 treatment-related AE [4]: 3.2%
Urinary tract infection, all-causality Grade 3 TEAE [4]: 3.2%
MTD (cut-off 30 Sep. 2022): not identified
Alanine aminotransferase increased, all-causality Grade 3 TEAE (human, in vivo): 6.5%
Alanine aminotransferase increased, all-causality TEAE, any grade (human, in vivo): 25.8%
Anaphylactic reaction, all-causality Grade 3 TEAE (human, in vivo): 3.2%
Anemia, Grade 3 treatment-related AE (human, in vivo): 16.1%
Anemia, TRAE, any grade (human, in vivo): 54.8%
Anemia, all-causality Grade 3 TEAE (human, in vivo): 16.1%
Anemia, all-causality TEAE, any grade (human, in vivo): 54.8%
Aspartate aminotransferase increased, all-causality TEAE, any grade (human, in vivo): 29.0%
Bone pain, all-causality SAE, by patient frequency (human, in vivo): 1
Diarrhea, Grade 3 treatment-related AE (human, in vivo): 3.2%
Diarrhea, TRAE, any grade (human, in vivo): 29.0%
Diarrhea, all-causality Grade 3 TEAE (human, in vivo): 3.2%
Diarrhea, all-causality TEAE, any grade (human, in vivo): 35.5%
Dysgeusia, TRAE, any grade (human, in vivo): 80.6%
Dysgeusia, all-causality TEAE, any grade (human, in vivo): 83.9%
Dysphagia, all-causality SAE, by patient frequency (human, in vivo): 1
Embolism, Grade 3 treatment-related AE (human, in vivo): 3.2%
Embolism, all-causality Grade 3 TEAE (human, in vivo): 3.2%
Embolism, all-causality SAE, by patient frequency (human, in vivo): 1
Fatigue, all-causality Grade 3 TEAE (human, in vivo): 3.2%
Fatigue, all-causality TEAE, any grade (human, in vivo): 25.8%
Flank pain, all-causality Grade 3 TEAE (human, in vivo): 3.2%
Flank pain, all-causality SAE, by patient frequency (human, in vivo): 1
Grade 4 treatment-related AEs (human, in vivo): no Grade 4 treatment-related AEs
Haematuria, all-causality Grade 3 TEAE (human, in vivo): 3.2%
Haematuria, all-causality SAE, by patient frequency (human, in vivo): 1
Hypercalcaemia, Grade 4 TEAE (human, in vivo): 3.2%
Hypotension, all-causality Grade 3 TEAE (human, in vivo): 6.5%
Hypotension, all-causality SAE, by patient frequency (human, in vivo): 2
Hypotension, treatment-related SAE, by patient frequency (human, in vivo): 1
Lymphocyte count decreased, Grade 3 treatment-related AE (human, in vivo): 3.2%
Lymphocyte count decreased, all-causality Grade 3 TEAE (human, in vivo): 6.5%
Neutrophil count decreased/Neutropenia, Grade 3 treatment-related AE (human, in vivo): 29.1%
Neutrophil count decreased/Neutropenia, TRAE, any grade (human, in vivo): 51.6%
Neutrophil count decreased/Neutropenia, all-causality Grade 3 TEAE (human, in vivo): 29.1%
Neutrophil count decreased/Neutropenia, all-causality TEAE, any grade (human, in vivo): 51.6%
Platelet count decreased, TRAE, any grade (human, in vivo): 22.6%
Platelet count decreased, all-causality TEAE, any grade (human, in vivo): 22.6%
Pneumonitis, all-causality SAE, by patient frequency (human, in vivo): 1
Pneumonitis, treatment-related SAE, by patient frequency (human, in vivo): 1
Pulmonary embolism, all-causality Grade 3 TEAE (human, in vivo): 3.2%
Thrombocytopenia, Grade 3 treatment-related AE (human, in vivo): 3.2%
Thrombocytopenia, all-causality Grade 3 TEAE (human, in vivo): 3.2%
White blood cell count decreased, Grade 3 treatment-related AE (human, in vivo): 9.7%
White blood cell count decreased, TRAE, any grade (human, in vivo): 29.0%
White blood cell count decreased, all-causality Grade 3 TEAE (human, in vivo): 9.7%
White blood cell count decreased, all-causality TEAE, any grade (human, in vivo): 29.0%
all-causality SAEs, Total Number of Cases (human, in vivo): 9
all-causality SAEs, Total Number of Subjects (human, in vivo): 8
all-causality SAEs, Total Number of events (human, in vivo): 10
patients with at least one TEAE (human, in vivo): 31 patients
patients with at least one treatment-related adverse event (TRAE) (human, in vivo): 31 patients
severity of TRAEs (human, in vivo): majority of TRAEs were G1-2
treatment-related SAEs, Total Number of Cases (human, in vivo): 2
treatment-related SAEs, Total Number of Subjects (human, in vivo): 2
treatment-related SAEs, Total Number of events (human, in vivo): 2
RDE (human, in vivo, 28 days): 5 mg QD
Recommended dose for expansion (RDE) (human, in vivo, 28 days): 5 mg QD
kind of DLTs (human, in vivo, 28 days): Grade 3 neutropenia
